Experimental data from patent US20080188481A1 (priority 2002, published 2008).

test system: HIV-1 single-round infectious reporter virus; test: Single-round infectious HIV-1 luciferase reporter virus infection of HeLa CD4 cells (antiviral EC50); format: cell-based; details: Human immunodeficiency virus 1, HeLa, 72 h, read-out: EC50 Group from Table 1
Description: • Virus production—Human embryonic Kidney cell line, 293T, was propagated in Dulbecco's Modified Eagle Medium (Invitrogen, Carlsbad, Calif.) containing 10% fetal Bovine serum (FBS, Sigma, St. Louis, Mo.). • Virus infection—Human epithelial cell line, HeLa, expressing the HIV-1 receptor CD4 was propagated in Dulbecco's Modified Eagle Medium (Invitrogen, Carlsbad, Calif.) containing 10% fetal Bovine serum (FBS, Sigma, St. Louis, Mo.) and supplemented with 0.2 mg/mL Geneticin (Invitrogen, Carlsbad, Calif.). Virus-Single-round infectious reporter virus was produced by co-transfecting human embryonic Kidney 293 cells with an HIV-1 envelope DNA expression vector and a proviral cDNA containing an envelope deletion mutation and the luciferase reporter gene inserted in place of HIV-1 nef sequences (Chen et al, Ref. 41). Transfections were performed using lipofectAMINE PLUS reagent as described by the manufacturer (Invitrogen, Carlsbad, Calif.).
• 1. HeLa CD4 cells were plated in 96 well plates at a cell density of 1×10^4 cells per well in 100 μl Dulbecco's Modified Eagle Medium containing 10% fetal Bovine serum and incubated overnight. • 2. Compound was added in a 2 μl dimethylsulfoxide solution, so that the final assay concentration would be ≦10 μM. • 3. 100 μl of single-round infectious reporter virus in Dulbecco's Modified Eagle Medium was then added to the plated cells and compound at an approximate multiplicity of infection (MOI) of 0.01, resulting in a final volume of 200 μl per well. • 4. Virally-infected cells were incubated at 37 degrees Celsius, in a CO2 incubator, and harvested 72 h after infection. • 5. Viral infection was monitored by measuring luciferase expression from viral DNA in the infected cells using a luciferase reporter gene assay kit, as described by the manufacturer (Roche Molecular Biochemicals, Indianapolis, Ind.). Infected cell supernatants were removed and 50 μl of lysis buffer was added per well. After 15 minutes, 50 μl of freshly-reconstituted luciferase assay reagent was added per well. Luciferase activity was then quantified by measuring luminescence using a Wallac microbeta scintillation counter. • 6. The percent inhibition for each compound was calculated by quantifying the level of luciferase expression in cells infected in the presence of each compound as a percentage of that observed for cells infected in the absence of compound and subtracting such a determined value from 100. • 7. An EC50 provides a method for comparing the antiviral potency of the compounds of this invention. The effective concentration for fifty percent inhibition (EC50) was calculated with the Microsoft Excel Xlfit curve fitting software. For each compound, curves were generated from percent inhibition calculated at 10 different concentrations by using a four paramenter logistic model (model 205). Table 1 is the key for the data in Table 2.

| SMILES | EC50 [nM] |
| --- | --- |
| COc1cnc(-n2ccnn2)c2[nH]cc(C(=O)C(=O)N3CCC(=C(c4ccccc4)c4nnc(O)o4)CC3)c12 [Example 77, 1-[4-(1-Phenyl-1-(5-hydroxy-1,3,4-oxadiazol-2-yl)-methylene)-piperidin-1-yl]-2-[4-methoxy-7-(1,2,3-triazol-1-yl)-6-azaindol-3-yl]-ethane-1,2-dione] | < 1000 |
| COc1cnc(-n2ccnn2)c2[nH]cc(C(=O)C(=O)N3CCC(=C(c4ccccc4)c4cccc(CO)c4)CC3)c12 [Example 78, 1-[4-(1-Phenyl-1-(3-hydroxymethylphenyl)-methylene)-piperidin-1-yl]-2-[4-methoxy-7-(1,2,3-triazol-1-yl)-6-azaindol-3-yl]-ethane-1,2-dione] | < 1000 |
| COc1cnc(-n2cncn2)c2[nH]cc(C(=O)C(=O)N3CCC(=C(c4ccccc4)c4nnc(C)o4)CC3)c12 [Example 79, 1-[4-(1-Phenyl-1-(5-methyl-1,3,4-oxadiazol-2-yl)-methylene)-piperidin-1-yl]-2-[4-methoxy-7-(1,2,4-triazol-1-yl)-6-azaindol-3-yl]-ethane-1,2-dione] | < 1000 |
| COc1cnc(-n2cnc(C)n2)c2[nH]cc(C(=O)C(=O)N3CCC(=C(c4ccccc4)c4nnc(C)o4)CC3)c12 [Example 80, 1-[4-(1-Phenyl-1-(5-methyl-1,3,4-oxadiazol-2-yl)-methylene)-piperidin-1-yl]-2-[4-methoxy-7-(3-methyl-1,2,4-triazol-1-yl)-6-azaindol-3-yl]-ethane-1,2-dione] | < 1000 |
| COc1cnc(-n2cnc(C)n2)c2[nH]cc(C(=O)C(=O)N3CCC(=C(c4ccccc4)c4nnc(C(C)C)o4)CC3)c12 [Example 81, 1-[4-(1-Phenyl-1-(5-isopropyl-1,3,4-oxadiazol-2-yl)-methylene)-piperidin-1-yl]-2-[4-methoxy-7-(3-methyl-1,2,4-triazol-1-yl)-6-azaindol-3-yl]-ethane-1,2-dione] | < 1000 |
| COc1cnc(-n2cnc(C)n2)c2[nH]cc(C(=O)C(=O)N3CCC(=C(c4ccccc4)c4nnc(C5CC5)o4)CC3)c12 [Example 82, 1-[4-(1-Phenyl-1-(5-cyclopropyl-1,3,4-oxadiazol-2-yl)-methylene)-piperidin-1-yl]-2-[4-methoxy-7-(3-methyl-1,2,4-triazol-1-yl)-6-azaindol-3-yl]-ethane-1,2-dione] | < 1000 |
| COc1cnc(-n2cnc(C)n2)c2[nH]cc(C(=O)C(=O)N3CCC(=C(c4ccccc4)c4nnc(O)o4)CC3)c12 [Example 83, 1-[4-(1-Phenyl-1-(5-hydroxy-1,3,4-oxadiazol-2-yl)-methylene)-piperidin-1-yl]-2-[4-methoxy-7-(3-methyl-1,2,4-triazol-1-yl)-6-azaindol-3-yl]-ethane-1,2-dione] | < 1000 |
| COc1cnc(-n2cnc(C)n2)c2[nH]cc(C(=O)C(=O)N3CCC(=C(c4ccccc4)c4cccc(CO)c4)CC3)c12 [Example 84, 1-[4-(1-Phenyl-1-(3-hydroxymethylphenyl)-methylene)-piperidin-1-yl]-2-[4-methoxy-7-(3-methyl-1,2,4-triazol-1-yl)-6-azaindol-3-yl]-ethane-1,2-dione] | < 1000 |
| COc1cnc(-n2cnc(C)n2)c2[nH]cc(C(=O)C(=O)N3CCC(=C(c4ccccc4)c4cc(F)cc(F)c4)CC3)c12 [Example 85, 1-[4-(1-Phenyl-1-(3,5-difluorophenyl)-methylene)-piperidin-1-yl]-2-[4-methoxy-7-(3-methyl-1,2,4-triazol-1-yl)-6-azaindol-3-yl]-ethane-1,2-dione] | < 1000 |
| CCOC(=O)c1cc(C(=C2CCN(C(=O)C(=O)c3c[nH]c4c(-n5cnc(C)n5)ncc(OC)c34)CC2)c2ccccc2)n[nH]1 [Example 87] | < 1000 |
| COc1cnc(-n2cncn2)c2[nH]cc(C(=O)C(=O)N3CCC(=C(Br)c4ccccc4)CC3)c12 [Example 88] | < 1000 |
| COc1cnc(-c2cnccn2)c2[nH]cc(C(=O)C(=O)N3CCC(=C(Br)c4ccccc4)CC3)c12 [Example 89] | < 1000 |
| COc1cnc(-c2cnccn2)c2[nH]cc(C(=O)C(=O)N3CCC(=C(c4ccccc4)c4nccs4)CC3)c12 [Example 90] | < 1000 |
| COc1cnc(-c2cnccn2)c2[nH]cc(C(=O)C(=O)N3CCC(=C(c4ccccc4)c4csc(C)n4)CC3)c12 [Example 91] | < 1000 |
| COc1cnc(-c2cnccn2)c2[nH]cc(C(=O)C(=O)N3CCC(=C(c4ccccc4)c4cnco4)CC3)c12 [Example 92] | < 1000 |
| COc1cnc(-c2cnccn2)c2[nH]cc(C(=O)C(=O)N3CCC(=C(c4ccccc4)c4ccc(F)cc4)CC3)c12 [Example 93] | < 1000 |

| SMILES | EC50 [nM] |
| --- | --- |
| COc1cnc(-c2cnccn2)c2[nH]cc(C(=O)C(=O)N3CCC(=C(c4ccccc4)c4cccc(F)c4)CC3)c12 [Example 94] | < 1000 |
| COc1cnc(-n2ccc(C)n2)c2[nH]cc(C(=O)C(=O)N3CCC(=C(c4ccccc4)c4nccs4)CC3)c12 [Example 95] | < 1000 |
| COc1cnc(-n2ccc(C)n2)c2[nH]cc(C(=O)C(=O)N3CCC(=C(c4ccccc4)c4cnccn4)CC3)c12 [Example 96] | < 1000 |
| COc1cnc(-n2ccc(C)n2)c2[nH]cc(C(=O)C(=O)N3CCC(=C(c4ccccc4)c4ccc(F)cc4)CC3)c12 [Example 97] | < 1000 |
| COc1cnc(-n2ccc(C)n2)c2[nH]cc(C(=O)C(=O)N3CCC(=C(c4ccccc4)c4cccc(F)c4)CC3)c12 [Example 98] | < 1000 |
| COc1cnc(-n2ccc(C)n2)c2[nH]cc(C(=O)C(=O)N3CCC(=C(c4ccccc4)c4nnc(C)o4)CC3)c12 [Example 99] | < 1000 |
| COc1cnc(-n2ccc(C)n2)c2[nH]cc(C(=O)C(=O)N3CCC(=C(c4ccccc4)c4csc(C)n4)CC3)c12 [Example 100] | < 1000 |
| N#CC(=C1CCN(C(=O)C(=O)c2c[nH]c3c(Cl)ccnc23)CC1)c1ccccc1 [Example 101, {1-[2-(7-Chloro-1H-pyrrolo[3,2-b]pyridin-3-yl)-2-oxo-acetyl]-piperidin-4-ylidene}-phenyl-acetonitrile] | < 1000 |
| N#CC(=C1CCN(C(=O)C(=O)c2c[nH]c3c(-c4cnccn4)ccnc23)CC1)c1ccccc1 [Example 102, {1-[2-Oxo-2-(7-pyrazin-2-yl-1H-pyrrolo[3,2-b]pyridin-3-yl)-acetyl]-piperidin-4-ylidene}-phenyl-acetonitrile] | < 1000 |
| N#CC(=C1CCN(C(=O)C(=O)c2c[nH]c3c(-c4ncco4)ccnc23)CC1)c1ccccc1 [Example 103, {1-[2-(7-Oxazol-2-yl-1H-pyrrolo[3,2-b]pyridin-3-yl)-2-oxo-acetyl]-piperidin-4-ylidene}-phenyl-acetonitrile] | < 1000 |
| N#CC(=C1CCN(C(=O)C(=O)c2c[nH]c3c(-c4nccs4)ccnc23)CC1)c1ccccc1 [Example 104, {1-[2-Oxo-2-(7-thiazol-2-yl-1H-pyrrolo[3,2-b]pyridin-3-yl)-acetyl]-piperidin-4-ylidene}-phenyl-acetonitrile] | < 1000 |
| N#CC(=C1CCN(C(=O)C(=O)c2c[nH]c3c(-n4nccn4)ccnc23)CC1)c1ccccc1 [Example 105, {1-[2-Oxo-2-(7-[1,2,3]triazol-2-yl-1H-pyrrolo[3,2-b]pyridin-3-yl)-acetyl]-piperidin-4-ylidene}-phenyl-acetonitrile] | < 1000 |
| N#CC(=C1CCN(C(=O)C(=O)c2c[nH]c3c(-c4cncc(N)n4)ccnc23)CC1)c1ccccc1 [Example 106, (1-{2-[7-(6-Amino-pyrazin-2-yl)-1H-pyrrolo[3,2-b]pyridin-3-yl]-2-oxo-acetyl}-piperidin-4-ylidene)-phenyl-acetonitrile] | < 1000 |
| O=C(C(=O)N1CCC(=C(Br)c2ccccc2)CC1)c1c[nH]c2c(Cl)ccnc12 [Example 107, 1-[4-(Bromo-phenyl-methylene)-piperidin-1-yl]-2-(7-chloro-1H-pyrrolo[3,2-b]pyridin-3-yl)-ethane-1,2-dione] | < 1000 |
| Cc1nnc(C(=C2CCN(C(=O)C(=O)c3c[nH]c4c(Cl)ccnc34)CC2)c2ccccc2)o1 [Example 108, 1-(7-Chloro-1H-pyrrolo[3,2-b]pyridin-3-yl)-2-{4-[(5-methyl-[1,3,4]oxadiazol-2-yl)-phenyl-methylene]-piperidin-1-yl}-ethane-1,2-dione] | < 1000 |
| O=C(C(=O)N1CCC(=C(c2ccccc2)c2cc(F)cc(F)c2)CC1)c1c[nH]c2c(Cl)ccnc12 [Example 109, 1-(7-Chloro-1H-pyrrolo[3,2-b]pyridin-3-yl)-2-{4-[(3,5-difluoro-phenyl)-phenyl-methylene]-piperidin-1-yl}-ethane-1,2-dione] | < 1000 |
